The NIST ThermoML archive (doi:10.1021/je050464i)
Values joined by “and” are separate entries in the source; they are usually repeats but may differ in a detail not shown here. Equal entries are not always repeated.

Conditions: Crystal, Calculated from knudsen effusion weight loss

[Pd] [palladium]
Conditions	vapor or sublimation pressure
1473 K	1e-05 kPa
1498 K	2e-05 kPa
1523 K	3e-05 kPa
1548 K	6e-05 kPa
1573 K	9e-05 kPa
1576 K	9e-05 kPa
1598 K	0.000141 kPa
1600 K	0.00011 kPa
1626 K	0.0002 kPa
1648 K	0.00028 kPa
1650 K	0.00026 kPa
1660 K	0.0005 kPa
1673 K	0.0004 kPa and 0.0004 kPa and 0.0004 kPa
1676 K	0.00044 kPa
1685 K	0.00067 kPa
1698 K	0.0005 kPa and 0.00076 kPa and 0.00058 kPa
1700 K	0.00061 kPa
1706 K	0.0009 kPa
1723 K	0.00108 kPa [middle of 4 runs]
1726 K	0.00094 kPa
1740 K	0.0012 kPa
1748 K	0.0016 kPa and 0.0016 kPa and 0.0012 kPa
1750 K	0.00131 kPa
1773 K	0.002 kPa and 0.0022 kPa
1776 K	0.002 kPa
1798 K	0.0024 kPa and 0.0029 kPa
1800 K	0.0027 kPa
1802 K	0.0024 kPa
1806 K	0.002 kPa
1823 K	0.004 kPa
1825 K	0.0037 kPa
1840 K	0.0047 kPa
1848 K	0.0048 kPa
1850 K	0.0053 kPa
1860 K	0.0061 kPa
1873 K	0.008 kPa and 0.0076 kPa
1883 K	0.0066 kPa
1885 K	0.0082 kPa
1898 K	0.01 kPa and 0.0094 kPa
1900 K	0.0098 kPa
1910 K	0.0109 kPa
1912 K	0.0111 kPa
1923 K	0.013 kPa and 0.014 kPa
1925 K	0.0125 kPa
1940 K	0.015 kPa
1942 K	0.0157 kPa
1948 K	0.018 kPa and 0.017 kPa and 0.021 kPa
1950 K	0.0174 kPa and 0.0166 kPa
1954 K	0.021 kPa
1963 K	0.02 kPa and 0.0201 kPa
1965 K	0.0203 kPa and 0.0204 kPa
1970 K	0.024 kPa
1972 K	0.022 kPa
1973 K	0.022 kPa and 0.024 kPa and 0.02 kPa
